# Patent publication US11000511B2, “Chemical compounds as antibiotics” (priority 2017, dated 2021)
# What was measured:
# [1] = target: T1, purified LasB protein from P. aeruginosa (Pseudomonas aeruginosa, UniProt P14756); test: Fluorometric assay to determine Ki (Assay 1); format: biochemical; settings: Ki (μM) Assay 1, purified LasB, substrate Abz-Ala-Gly-Leu-Ala-p-Nitro-Benzyl-Amide 250 μM, Ki calculated from IC50; inhibitor 0.006 to 200 μM
# T1 construct: purchased Merck or Charles River Laboratories
# T1 sequence (P14756 198-498): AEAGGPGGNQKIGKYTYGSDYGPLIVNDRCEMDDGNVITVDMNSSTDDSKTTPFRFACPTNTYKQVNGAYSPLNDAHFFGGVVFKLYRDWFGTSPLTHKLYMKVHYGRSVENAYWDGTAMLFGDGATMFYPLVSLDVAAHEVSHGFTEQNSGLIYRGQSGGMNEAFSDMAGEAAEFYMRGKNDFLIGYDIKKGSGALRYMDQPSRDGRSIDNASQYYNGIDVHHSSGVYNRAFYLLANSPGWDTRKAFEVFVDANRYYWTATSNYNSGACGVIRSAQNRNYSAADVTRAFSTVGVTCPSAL
# Method: (§1) Experiments were therefore conducted (1) to measure the potency of inhibition of compounds of the invention against purified Pseudomonas aeruginosa LasB enzyme and also experiments were conducted (2) to measure the ability of compounds of the invention to inhibit LasB-catalysed elastin degradation. The first assay uses a commercial fluorescent synthetic peptide and purified LasB enzyme. The LasB hydrolysis kinetics are measured allowing the determination of the IC50 and Ki of the inhibitors; the second is a more physiological assay using dialysed Pseudomonas aeruginosa supernatant as source of enzyme, plus its natural substrate Elastin. It is an “end point assay” that determines the percentage of LasB inhibition by each compound for one particular time point and inhibitor concentration. Technical details are described below:
# This assay uses commercially available substrate (Abz-Ala-Gly-Leu-Ala-p-Nitro-Benzyl-Amide (Ex: 340 nm, Em: 415 nm) from Peptide International) and purified LasB protein from P. aeruginosa (provided by Merck or Charles River Laboratories). It is performed to determine LasB elastase activity and assess compound inhibition in 96-well plate format. Some compounds of Formula (I) were assessed using the method of Assay 1 (described below). Other compounds of Formula (I) were assessed using the alternative but equivalent method of Assay 2 (described below).
# Method: 10 to 140 ng/ml purified LasB is incubated with 250 μM Abz-Ala-Gly-Leu-Ala-p-Nitro-Benzyl-Amide in 50 mM Tris-HCl pH 7.4, 2.5 mM CaCl2), 0.01% of Triton X100 at 37° C. LasB activity (corresponding to fluorescence emission induced by substrate hydrolysis) is measured over 30 min at 37° C. with a fluorescence plate reader such as the Perkin Elmer Envision or similar. Different range of inhibitor concentrations are routinely assessed depending of inhibitor potency from 0.006 to 200 μM (Assay 1; 2-fold dilutions series) or from 0.0016 to 200 μM (Assay 2; 2-fold dilutions series) in order to determine IC50.
# The equation used to calculate the Ki from IC50 is: Ki=IC50/(1+([S]/Km)) where [S]=250 μM and Km=214 μM.
# [2] = target: T2, LasB elastase activity in dialysed supernatant from P. aeruginosa strain PA01 (Pseudomonas aeruginosa, UniProt P14756); test: Elastin Congo Red assay to determine % inhibition (Assay 1); format: biochemical; settings: for inhibition at 50 µM: read-out: Elastin hydrolysis % inhibition @ 50/25 μM inhibitor concentration Assay 1
# T2 construct: uses as source of enzyme dialysed supernatant from P. aeruginosa; endogenous in cells; host or cells: P. aeruginosa strain PA01 culture supernatant, filtered and dialysed
# T2 sequence (P14756 198-498): as above
# Method: as §1
# The Elastin assay uses as source of enzyme dialysed supernatant from P. aeruginosa and the elastin congo red as substrate. The natural LasB substrate, elastin, is complexed with the congo red dye (Elastin Congo Red, ECR). The elastolysis activity from the culture supernatant will degrade elastin and release the congo red dye into the supernatant. This red dye release can be measured with a spectrophotometer. Some compounds of Formula (I) were assessed using the method of Assay 1 (described below). Other compounds of Formula (I) were assessed using the alternative but equivalent method of Assay 2 (described below).
# Method (Assay 1): To determine LasB elastase activity and assess compound inhibition, an overnight culture of P. aeruginosa strain PA01 is diluted thousand-fold in LB medium. This diluted solution is incubated during 19 hours in a shaking incubator. Culture supernatants are recovered by centrifugation and filtrated through a […] filter. These supernatants are dialysed (filtration molecules <20 kDa) into a 50 mM Tris pH 7.4, 2.5 mM CaCl2 solution at 4° C. under agitation for 24 hours. Supernatant dialysed is then mixed volume/volume with the ECR suspension (20 mg/mL of ECR in 100 mM Tris buffer supplemented with 1 mM CaCl2) supplemented with TritonX 100 (final concentration of 0.01%) in presence of different concentrations of compound (routinely 50 and 25 μM). The mixed reaction is then incubated for 24 hours in a 37° shaking incubator. As a negative control, the mixed supernatant is replaced by Tris solution (50 mM Tris pH 7.4, 2.5 mM CaCl2). The reaction supernatant is recovered by centrifugation and the release of congo red is measured by its absorbance at OD520. Percentage inhibition is determined using the following equation: (OD520 value of DMSO SN−OD520 value of LB)−(OD520 value of Compound SN−OD520 value of LB)/(OD520 value of DMSO SN−OD520 value of LB)×100.
SMILES,Ki [1],inhibition at 50 µM [2],"Elastin hydrolysis % inhibition @ 50/25 μM inhibitor concentration Assay 1 ([2]; 50 μM inhibitor concentration, elastin congo red, 24 hours, OD520)"
"NCCCc1ccc2sc(CNC(=O)C3(CC(=O)O)Cc4ccccc4C3)nc2c1 [Example 40, 2-[2-[[5-(3-aminopropyl)-1,3-benzothiazol-2-yl]methylcarbamoyl]indan-2-yl]acetic acid]",< 0.3 µM,> 60%,
"O=C(O)CC1(C(=O)NCCc2c[nH]c3ccccc23)Cc2ccccc2C1 [Example 14, 2-[2-[2-(1H-indol-3-yl)ethylcarbamoyl]indan-2-yl]acetic acid]",< 0.3 µM,30 to 60%,
"NC/C=C/c1ccc2sc(CNC(=O)C3(CC(=O)O)Cc4ccccc4C3)nc2c1 [Example 87, 2-[2-[[5-[(E)-3-aminoprop-1-enyl]-1,3-benzothiazol-2-yl]methylcarbamoyl]indan-2-yl]acetic acid]",0.3 to 2 µM,> 60%,
"NCCC1CN(c2ccc3nc(CNC(=O)C4(CC(=O)O)Cc5ccccc5C4)sc3c2)C1 [Example 70, 2-[2-[[6-[3-(2-aminoethyl)azetidin-1-yl]-1,3-benzothiazol-2-yl]methylcarbamoyl]indan-2-yl]acetic acid]",< 0.3 µM,> 60%,
"O=C(O)CC1(C(=O)NCCc2ccc(O)cc2)Cc2ccccc2C1 [Example 13, 2-[2-[2-(4-hydroxyphenyl)ethylcarbamoyl]indan-2-yl]acetic acid]",2 to 10 µM,30 to 60%,
"O=C(O)CC1(C(=O)NCCc2cc3ccccc3[nH]2)Cc2ccccc2C1 [Example 27, 2-[2-[2-(1H-indol-2-yl)ethylcarbamoyl]indan-2-yl]acetic acid]",2 to 10 µM,15 to 30%,
"NCCc1ccc2nc(CNC(=O)C3(CC(=O)O)Cc4ccccc4C3)sc2c1 [Example 80, 2-[2-[[6-(2-aminoethyl)-1,3-benzothiazol-2-yl]methylcarbamoyl]indan-2-yl]acetic acid]",0.3 to 2 µM,> 60%,
"C[N+](C)(C)C[C@H]1C[C@@H](c2ccc3nc(CNC(=O)C4(CC(=O)[O-])Cc5ccccc5C4)sc3c2)C1 [Example 94, 2-[2-[[6-[(1s,3s)-3-[(trimethylammonio)methyl]cyclobutyl]-1,3-benzothiazol-2-yl]methylcarbamoyl]indan-2-yl]acetate]",< 0.3 µM,> 60%,
"O=C(O)CC1(C(=O)NC2CCN(c3cccc(Cl)c3)C2)Cc2ccccc2C1 (centres unmarked) [Example 8, 2-[2-[[1-(3-chlorophenyl)pyrrolidin-3-yl]carbamoyl]indan-2-yl]acctic acid]",< 0.3 µM,> 60%,
"N[C@H]1CCN(c2ccc3nc(CNC(=O)C4(CC(=O)O)Cc5ccccc5C4)sc3c2)C1 [Example 101, 2-[2-[[6-[(3 S)-3-aminopyrrolidin-1-yl]-1,3-benzothiazol-2-yl]methylcarbamoyl]indan-2-yl]acetic acid]",0.3 to 2 µM,> 60%,
"Cn1c(CNC(=O)C2(CC(=O)O)Cc3ccccc3C2)nc2ccccc21 [Example 56, 2-(2-(((1-methyl-1H-benzo[d]imidazol-2-yl)methyl)carbamoyl)-2,3-dihydro-1H-inden-2-yl)acetic acid]",0.3 to 2 µM,30 to 60%,
"O=C(O)CC1(C(=O)NCc2c[nH]c3ccccc23)Cc2ccccc2C1 [Example 26, 2-[2-(1H-indol-3-ylmethylcarbamoyl)indan-2-yl]acetic acid]",2 to 10 µM,30 to 60%,
"Cn1cc(CNC(=O)C2(CC(=O)O)Cc3ccccc3C2)cn1 [Example 3, 2-[2-[(1-methylpyrazol-4-yl)methylcarbamoyl]-indan-2-yl]acetic acid]",2 to 10 µM,30 to 60%,
"NCc1nnc([C@H](Cc2c[nH]c3ccccc23)NC(=O)C2(CC(=O)O)Cc3ccccc3C2)o1 [Example 118, (S)-2-(2-((1-(5-(aminomethyl)-1,3,4-oxadiazol-2-yl)-2-(1H-indol-3-yl)ethyl)carbamoyl)-2,3-dihydro-1H-inden-2-yl)acetic acid]",< 0.3 µM,> 60%,
"C[N+](C)(C)CCc1ccc2nc(CNC(=O)C3(CC(=O)[O-])Cc4ccccc4C3)sc2c1 [Example 96, 2-[2-[[6-[2-(trimethylammonio)ethyl]-1,3-benzothiazol-2-yl]methylcarbamoyl]indan-2-yl]acetate]",0.3 to 2 µM,30 to 60%,
"CC(NC(=O)C1(CC(=O)O)Cc2ccccc2C1)c1cc2ccccc2o1 (single isomer, unassigned) [Example 59, 2-[2-[[(1S*)-1-(benzofuran-2-yl)ethyl]carbamoyl]indan-2-yl]acetic acid]",0.3 to 2 µM,,B (30 to 60% inhibition)
"COc1ccc2sc(CNC(=O)C3(CC(=O)O)Cc4ccccc4C3)nc2c1 [Example 24, 2-[2-[(5-methoxy-1,3-benzothiazol-2-yl)methylcarbamoyl]indan-2-yl]acetic acid]",< 0.3 µM,> 60%,
"Cc1ccc2c(c1)CC(CNC(=O)C1(CC(=O)O)Cc3ccccc3C1)O2 (centres unmarked) [Example 7, 2-[2-[(5-methyl-2,3-dihydrobenzofuran-2-yl)methylcarbamoyl]indan-2-yl]acetic acid]",< 0.3 µM,> 60%,
"C[N+](C)(C)CCOc1ccc2sc(CNC(=O)C3(CC(=O)[O-])Cc4ccccc4C3)nc2c1 [Example 113, 2-[2-[[5-[2-(trimethylammonio)ethoxy]-1,3-benzothiazol-2-yl]methylcarbamoyl]indan-2-yl]acetate]",0.3 to 2 µM,> 60%,
"CN(C)CCCc1ccc2sc(CNC(=O)C3(CC(=O)O)Cc4ccccc4C3)nc2c1 [Example 89, 2-[2-[[5-[3-(dimethylamino)propyl]-1,3-benzothiazol-2-yl]methylcarbamoyl]indan-2-yl]acetic acid]",0.3 to 2 µM,> 60%,
"O=C(O)CC1(C(=O)NCCc2nc3ccccc3[nH]2)Cc2ccccc2C1 [Example 12, 2-[2-[2-(1H-benzimidazol-2-yl)ethylcarbamoyl]indan-2-yl]acetic acid]",2 to 10 µM,15 to 30%,
"CN(C)C1CN(c2ccc3sc(CNC(=O)C4(CC(=O)O)Cc5ccccc5C4)nc3c2)C1 [Example 74, 2-[2-[[5-[3-(dimethylamino)azetidin-1-yl]-1,3-benzothiazol-2-yl]methylcarbamoyl]indan-2-yl]acetic acid]",< 0.3 µM,> 60%,
"O=C(O)CC1(C(=O)N[C@@H](Cc2c[nH]c3ccccc23)C(=O)O)Cc2ccccc2C1 [Example 50, (2-(carboxymethyl)-2,3-dihydro-1H-indene-2-carbonyl)-L-tryptophan]",< 0.3 µM,> 60%,
"Cc1oc2ccccc2c1CNC(=O)C1(CC(=O)O)Cc2ccccc2C1 [Example 20, 2-[2-[(2-methylbenzofuran-3-yl)methylcarbamoyl]indan-2-yl]acetic acid]",2 to 10 µM,30 to 60%,
"O=C(O)CC1(C(=O)NCc2cc3ccccc3s2)Cc2ccccc2C1 [Example 23, 2-[2-(benzothiophen-2-ylmethylcarbamoyl)indan-2-yl]acetic acid]",< 0.3 µM,30 to 60%,
